Data published in ChEMBL document CHEMBL4138123, “Design, synthesis and biological evaluation of novel pyrazolochalcones as potential modulators of PI3K/Akt/mTOR pathway and inducers of apoptosis in breast cancer cells” (Eur J Med Chem, 2017).

What was measured:
Type in all cases: functional
UO-31 = assay: Cytotoxicity against human UO31 cells assessed as growth inhibition after 48 hrs by sulforhodamine B assay; conditions: UO-31, 48 h
M14 = assay: Cytotoxicity against human M14 cells assessed as cell growth at 0.01 uM after 48 hrs by sulforhodamine B assay relative to control; conditions: M14, 48 h, read-out: Activity
A549 [1] = assay: Cytotoxicity against human A549/ATCC cells assessed as growth inhibition after 48 hrs by sulforhodamine B assay; conditions: A549, 48 h
MDA-MB-231 [2] = assay: Cytotoxicity against human MDA-MB-231 cells assessed as cell growth at 0.1 uM after 48 hrs by sulforhodamine B assay relative to control; conditions: MDA-MB-231, 48 h, read-out: Activity
HCT-15 = assay: Cytotoxicity against human HCT15 cells assessed as growth inhibition after 48 hrs by sulforhodamine B assay; conditions: HCT-15, 48 h
NCI-H522 [3] = assay: Cytotoxicity against human NCI-H522 cells assessed as cell growth at 0.01 uM after 48 hrs by sulforhodamine B assay relative to control; conditions: NCI-H522, 48 h, read-out: Activity
U-251 [4] = assay: Cytotoxicity against human U251 cells assessed as cell growth at 0.1 uM after 48 hrs by sulforhodamine B assay relative to control; conditions: U-251, 48 h, read-out: Activity
Malme-3M = assay: Cytotoxicity against human MALME-3M cells assessed as cell growth at 0.1 uM after 48 hrs by sulforhodamine B assay relative to control; conditions: read-out: Activity
NCI-H23 = assay: Cytotoxicity against human NCI-H23 cells assessed as cell growth at 1 uM after 48 hrs by sulforhodamine B assay relative to control; conditions: NCI-H23, 48 h, read-out: Activity
MDA-MB-435 = assay: Cytotoxicity against human MDA-MB-435 cells assessed as cell growth at 0.1 uM after 48 hrs by sulforhodamine B assay relative to control; conditions: MDA-MB-435, 48 h, read-out: Activity
SK-OV-3 = assay: Cytotoxicity against human SKOV3 cells assessed as cell growth at 0.01 uM after 48 hrs by sulforhodamine B assay relative to control; conditions: SK-OV-3, 48 h, read-out: Activity
T47D [5] = assay: Cytotoxicity against human T47D cells assessed as growth inhibition after 48 hrs by sulforhodamine B assay
UACC-62 [6] = assay: Cytotoxicity against human UACC62 cells assessed as growth inhibition after 48 hrs by sulforhodamine B assay; conditions: UACC-62, 48 h
HCT-116 = assay: Cytotoxicity against human HCT116 cells assessed as cell growth at 0.1 uM after 48 hrs by sulforhodamine B assay relative to control; conditions: HCT-116, 48 h, read-out: Activity
A549 [7] = assay: Cytotoxicity against human A549/ATCC cells assessed as cell growth at 0.01 uM after 48 hrs by sulforhodamine B assay relative to control; conditions: A549, 48 h, read-out: Activity
DU-145 = assay: Cytotoxicity against human DU145 cells assessed as cell growth at 1 uM after 48 hrs by sulforhodamine B assay relative to control; conditions: DU-145, 48 h, read-out: Activity
T47D [8] = assay: Cytotoxicity against human T47D cells assessed as cell growth at 0.01 uM after 48 hrs by sulforhodamine B assay relative to control; conditions: read-out: Activity
UACC-62 [9] = assay: Cytotoxicity against human UACC62 cells assessed as cell growth at 0.1 uM after 48 hrs by sulforhodamine B assay relative to control; conditions: UACC-62, 48 h, read-out: Activity
NCI-H460 [10] = assay: Cytotoxicity against human NCI-H460 cells assessed as cell growth at 100 uM after 48 hrs by sulforhodamine B assay relative to control; conditions: NCI-H460, 48 h, read-out: Activity
RXF 393 = assay: Cytotoxicity against human RXF393 cells assessed as growth inhibition after 48 hrs by sulforhodamine B assay; conditions: RXF 393, 48 h
SF-268 = assay: Cytotoxicity against human SF268 cells assessed as cell growth at 10 uM after 48 hrs by sulforhodamine B assay relative to control; conditions: SF-268, 48 h, read-out: Activity
A498 = assay: Cytotoxicity against human A498 cells assessed as cell growth at 0.01 uM after 48 hrs by sulforhodamine B assay relative to control; conditions: A498, 48 h, read-out: Activity
NCI-H522 [11] = assay: Cytotoxicity against human NCI-H522 cells assessed as cell growth at 10 uM after 48 hrs by sulforhodamine B assay relative to control; conditions: NCI-H522, 48 h, read-out: Activity
SF-539 [12] = assay: Cytotoxicity against human SF539 cells assessed as cell growth at 0.01 uM after 48 hrs by sulforhodamine B assay relative to control; conditions: SF-539, 48 h, read-out: Activity
U-251 [13] = assay: Cytotoxicity against human U251 cells assessed as growth inhibition after 48 hrs by sulforhodamine B assay; conditions: U-251, 48 h
MDA-MB-231 [14] = assay: Cytotoxicity against human MDA-MB-231 cells assessed as growth inhibition after 48 hrs by sulforhodamine B assay; conditions: MDA-MB-231, 48 h
MDA-MB-468 = assay: Cytotoxicity against human MDA-MB-468 cells assessed as cell growth at 100 uM after 48 hrs by sulforhodamine B assay relative to control; conditions: MDA-MB-468, 48 h, read-out: Activity
NCI-H460 [15] = assay: Cytotoxicity against human NCI-H460 cells assessed as cell growth at 1 uM after 48 hrs by sulforhodamine B assay relative to control; conditions: NCI-H460, 48 h, read-out: Activity
KM12 = assay: Cytotoxicity against human KM12 cells assessed as cell growth at 100 uM after 48 hrs by sulforhodamine B assay relative to control; conditions: KM12, 48 h, read-out: Activity
OVCAR-5 = assay: Cytotoxicity against human OVCAR5 cells assessed as cell growth at 100 uM after 48 hrs by sulforhodamine B assay relative to control; conditions: OVCAR-5, 48 h, read-out: Activity
OVCAR-3 = assay: Cytotoxicity against human OVCAR3 cells assessed as cell growth at 1 uM after 48 hrs by sulforhodamine B assay relative to control; conditions: OVCAR-3, 48 h, read-out: Activity
T47D [16] = assay: Cytotoxicity against human T47D cells assessed as cell growth at 0.1 uM after 48 hrs by sulforhodamine B assay relative to control; conditions: read-out: Activity
SF-539 [17] = assay: Cytotoxicity against human SF539 cells assessed as cell growth at 10 uM after 48 hrs by sulforhodamine B assay relative to control; conditions: SF-539, 48 h, read-out: Activity
NCI/ADR-RES = assay: Cytotoxicity against human NCI/ADR-RES cells assessed as growth inhibition after 48 hrs by sulforhodamine B assay
SK-MEL-5 = assay: Cytotoxicity against human SK-MEL-5 cells assessed as cell growth at 1 uM after 48 hrs by sulforhodamine B assay relative to control; conditions: SK-MEL-5, 48 h, read-out: Activity

Structure (SMILES): COc1ccc(-c2cc(/C=C/C(=O)c3ccc(OC)c(OC)c3)[nH]n2)cc1
- GI50 (UO-31): 1.17 µM
- LC50 (UO-31): 5.1 µM
- TGI (UO-31): 2.44 µM
- growth at 0.01 µM (M14): 101%
- GI50 (A549 [1]): 1.88 µM
- LC50 (concentration giving 50% net cell kill) (A549 [1]): > 100 µM
- TGI (A549 [1]): 5.95 µM
- growth at 0.1 µM (MDA-MB-231 [2]): 91%
- GI50 (HCT-15): 1.35 µM
- LC50 (HCT-15): 9.41 µM
- TGI (HCT-15): 3.56 µM
- growth at 0.01 µM (NCI-H522 [3]): 102%
- growth at 0.1 µM (U-251 [4]): 84%
- growth at 0.1 µM (Malme-3M): 89%
- growth at 1 µM (NCI-H23): 98%
- growth at 0.1 µM (MDA-MB-435): 95%
- growth at 0.01 µM (SK-OV-3): 109%
- GI50 (T47D [5]): 1.6 µM
- LC50 (T47D [5]): 24.9 µM
- TGI (T47D [5]): 5.15 µM
- GI50 (UACC-62 [6]): 1.65 µM
- LC50 (UACC-62 [6]): 6.79 µM
- TGI (UACC-62 [6]): 3.35 µM
- growth at 0.1 µM (HCT-116): 105%
- growth at 0.01 µM (A549 [7]): 93%
- growth at 1 µM (DU-145): 74%
- growth at 0.01 µM (T47D [8]): 95%
- growth at 0.1 µM (UACC-62 [9]): 93%
- growth at 100 µM (NCI-H460 [10]): -63%
- GI50 (RXF 393): 1.39 µM
- LC50 (concentration killing 50% of cells) (RXF 393): 6.2 µM
- TGI (RXF 393): 2.94 µM
- growth at 10 µM (SF-268): -40%
- growth at 0.01 µM (A498): 91%
- growth at 10 µM (NCI-H522 [11]): -68%
- growth at 0.01 µM (SF-539 [12]): 95%
- GI50 (U-251 [13]): 1.11 µM
- LC50 (U-251 [13]): 4.97 µM
- TGI (U-251 [13]): 2.34 µM
- GI50 (MDA-MB-231 [14]): 2 µM
- LC50 (MDA-MB-231 [14]): 30 µM
- TGI (MDA-MB-231 [14]): 6.63 µM
- growth at 100 µM (MDA-MB-468): -76%
- growth at 1 µM (NCI-H460 [15]): 75%
- growth at 100 µM (KM12): -79%
- growth at 100 µM (OVCAR-5): -87%
- growth at 1 µM (OVCAR-3): 62%
- growth at 0.1 µM (T47D [16]): 92%
- growth at 10 µM (SF-539 [17]): -93%
- GI50 (NCI/ADR-RES): 3.44 µM
- LC50 (NCI/ADR-RES): > 100 µM
- TGI (NCI/ADR-RES): 24.8 µM
- growth at 1 µM (SK-MEL-5): 88%
